This is an account of results in patent US9006244B2, “Liver X receptor modulators” (priority 2012, dated 2015).

The target in assay [1] is LXRα ligand binding domain (LBD) (Homo sapiens (Human), UniProt Q13133). As to the kind of experiment: LXR α radioligand binding assay (SPA, [3H]TO901317 competition). As for the experimental part:
(§1) Poly-lysine SPA beads (50 μg) were added to each well and the total volume was adjusted to 120 μL. The plates were shaken on an orbital shaker for 20 min and then allowed to settle for 10 more minutes at rt before a brief centrifugation at 2,000 rpm for 1 min.

For assay [2], the target named is LXRβ (Homo sapiens (Human), UniProt P55055). As to the kind of experiment: LXR luciferase transcriptional reporter gene assay, Gal4-LXRβ LBD in HEK293 cells. Format: cell-based. Particulars: pG5-Luc luciferase reporter, 16 h, read-out: LXRβ CELL EC50. A general note: Reporter assays use an easily measured gene product as a stand-in for the process of interest.
Sequence of LXRβ (P55055 222-460): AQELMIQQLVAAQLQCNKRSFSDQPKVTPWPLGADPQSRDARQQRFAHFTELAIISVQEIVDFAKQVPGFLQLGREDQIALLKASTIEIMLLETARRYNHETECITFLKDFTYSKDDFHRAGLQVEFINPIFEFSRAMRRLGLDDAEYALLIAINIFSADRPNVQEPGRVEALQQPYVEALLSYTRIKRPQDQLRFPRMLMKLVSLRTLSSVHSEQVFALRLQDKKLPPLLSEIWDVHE
Description: (§2) The LXR luciferase transcriptional reporter gene assay measures the ability of LXR ligands to promote transcriptional activation via the ligand binding domain (LBD) of LXR. […] 90% confluent cells from a 150 mm dish were seeded in six 100 mm dishes. The cells were batch-transfected with an expression plasmid containing the Gal4 DNA binding domain fused to either the LBD of LXRα or LXRβ and a luciferase reporter plasmid pG5-Luc (Promega, Madison, Wis.), which has Gal4 response elements upstream of firefly luciferase gene (luc+). […] Five h following transfection, 15 mL of 10% charcoal-treated FBS (Hyclone, #SH30070.03) in DMEM were added to the transfected dishes without removing transfection media, and then incubate the cells at 37° C. overnight. The next day, the cells from the transfected dish were trypsinized, washed with PBS, resuspended in 10% charcoal-treated DMEM media and plated into 96-well plates with 60,000 cells/100 μL per well. The cells were incubated at 37° C. for ˜4 h before addition of 100 μL of test compound or control ligand at different concentrations (final DMSO concentration at 0.2%). Following incubation of the cells for 16 h with substances, the culture media were dumped and Bright-Glo™ luciferase reagent (Promega, Cat. #E2610) was added to lyse the cells and initiate the luciferase reaction. Luminescence, as a measure of luciferase activity, was detected in a plate reader (Victor2, PE-Wallac). Transcriptional activation in the presence of a test substance was expressed as fold-change in luminescence compared to that of cells incubated in the absence of the substance. EC50 values were calculated using the XLfit™ program (IDBS, Guilford, UK).
The target in assay [3] is LXRβ ligand binding domain (LBD) (Homo sapiens (Human), UniProt P55055). Put plainly: LXR β radioligand binding assay (SPA, [3H]TO901317 competition). The note with it: for selectivity for the LXRβ subtype over the LXRα subtype: LXRβ versus LXRα, statement in the summary. As for the experimental part:
as §1

The target of assay [4] is LXRα (Homo sapiens (Human), UniProt Q13133). Put plainly: LXR luciferase transcriptional reporter gene assay, Gal4-LXRα LBD in HEK293 cells. Type of assay: cell-based. Particulars: pG5-Luc luciferase reporter, 16 h, read-out: LXRα CELL EC50.
Sequence of LXRα (Q13133 209-447): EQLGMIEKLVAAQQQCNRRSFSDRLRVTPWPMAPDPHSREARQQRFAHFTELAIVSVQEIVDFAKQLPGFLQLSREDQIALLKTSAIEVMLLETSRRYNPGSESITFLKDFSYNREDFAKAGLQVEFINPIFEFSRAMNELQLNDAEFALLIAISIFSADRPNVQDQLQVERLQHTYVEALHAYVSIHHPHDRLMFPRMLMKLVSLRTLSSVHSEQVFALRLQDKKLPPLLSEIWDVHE
Description: as §2

Sequence of LXRα ligand binding domain (LBD) (Q13133 209-447): as above
Sequence of LXRβ ligand binding domain (LBD) (P55055 222-460): as the sequence (P55055 222-460) above

One may read the Ki as the equilibrium dissociation constant of an inhibitor or competing ligand from its target. By EC50 is commonly meant the concentration needed to bring the measured effect to its halfway point. For the compound `CC(C)[C@@H]1c2nc3cc(CO)c(S(C)(=O)=O)cc3n2CCN1c1nccc(C(F)(F)F)n1` (single isomer, unassigned) [Compound E2a], the results for the inhibitory constant (Ki) in assay [1] and in assay [3] were 318 nM and 20 nM, respectively. The EC50 is 13 nM in assay [2] and 340 nM in assay [4]. Moreover, in assay [3], the “selectivity for the LXRβ subtype over the LXRα subtype” value is given as “selective for the LXRβ subtype over the LXRα subtype”.
Turning to `CC(C)[C@H]1c2nc3cc(CO)c(S(C)(=O)=O)cc3n2CCN1c1nccc(C(F)(F)F)n1` (single isomer, unassigned) [Compound E2b], the Ki in assay [1] was over 3330 nM; in assay [3], over 2500 nM. In addition, the EC50 in assay [2] was 6940 nM; in assay [4] it was 17300 nM.
`CC(C)[C@@H]1c2cc3ccc(S(C)(=O)=O)cc3n2CCN1c1nccc(C(F)(F)F)n1` (single isomer, unassigned) [Compound E3a, 1-isopropyl-7-(methylsulfonyl)-2-(4-(trifluoromethyl)pyrimidin-2-yl)-1,2,3,4-tetrahydropyrazino[1,2-a]indole] gave a Ki in assay [1] of 398 nM. The EC50 in assay [4] was 1100 nM.
The corresponding values for `CC(C)[C@H]1c2cc3ccc(S(C)(=O)=O)cc3n2CCN1c1nccc(C(F)(F)F)n1` (single isomer, unassigned) [Compound E3b, 1-isopropyl-7-(methylsulfonyl)-2-(4-(trifluoromethyl)pyrimidin-2-yl)-1,2,3,4-tetrahydropyrazino[1,2-a]indole] are over 3330 nM and over 20000 nM.
Regarding `CC(C)[C@@H]1c2cc3cc(CO)c(S(C)(=O)=O)cc3n2CCN1c1nccc(C(F)(F)F)n1` (single isomer, unassigned) [Compound E4a, (1-isopropyl-7-(methylsulfonyl)-2-(4-(trifluoromethyl)pyrimidin-2-yl)-1,2,3,4-tetrahydropyrazino[1,2-a]indol-8-yl)methanol], the inhibitory constant (Ki) is 43 nM in assay [1] and 4 nM in assay [3]. Also, the concentration giving a half-maximal response (EC50) in assay [2] stood at 10 nM; in assay [4] it was 163 nM. For the same compound, the “selectivity for the LXRβ subtype over the LXRα subtype” value in assay [3] was “selective for the LXRβ subtype over the LXRα subtype”.
With `CC(C)[C@H]1c2cc3cc(CO)c(S(C)(=O)=O)cc3n2CCN1c1nccc(C(F)(F)F)n1` (single isomer, unassigned) [Compound E4b, (1-isopropyl-7-(methylsulfonyl)-2-(4-(trifluoromethyl)pyrimidin-2-yl)-1,2,3,4-tetrahydropyrazino[1,2-a]indol-8-yl)methanol], the Ki in assay [1] was over 3330 nM; in assay [3], 846 nM. Also, the EC50 in assay [2] and in assay [4] was over 20000 nM in each case.
Turning to `CC(C)C1c2nc3ccc(S(C)(=O)=O)cc3n2CCN1c1nccc(C(F)(F)F)n1` (centres unmarked) [Compound E1, 1-isopropyl-7-(methylsulfonyl)-2-(4-(trifluoromethyl)pyrimidin-2-yl)-1,2,3,4-tetrahydrobenzo[4,5]imidazo[1,2-a]pyrazine], the Ki was 1770 nM in assay [1] and 256 nM in assay [3]. The EC50 was 313 nM in assay [2] and 3370 nM in assay [4].
